According to US20250221410A1, “SUBSTITUTED 2-C-AZINES AND SALTS THEREOF, AND USE THEREOF AS HERBICIDAL ACTIVE SUBSTANCES” (BAYER AKTIENGESELLSCHAFT, priority 2022, published 2025):

Experiments:
Format in all cases: in vivo
[1] = test system: VERPE: Veronica persica; experiment: Post-emergence herbicidal efficacy at 1280 g/ha, VERPE; conditions: visual rating about 3 weeks after treatment vs untreated controls
Outline: (§1)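 Weeds grown in sandy loam in the greenhouse were sprayed at the one-leaf stage, 2 to 3 weeks after sowing, with WP or EC formulations in water plus 0.5% additive at 600 L/ha. Damage was scored visually about 3 weeks later against untreated controls (0% = like control, 100% = plants dead).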

[2] = test system: KCHSC: Kochia scoparia; experiment: Pre-emergence herbicide efficacy at 1280 g/ha, KCHSC; conditions: visual scoring after about 3 weeks vs untreated controls
Outline: (§2)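 Seeds sown in sandy loam in pots and covered; compounds as WP or EC applied to covering soil surface as aqueous suspension/emulsion with 0.5% additive at 600 L/ha water. Greenhouse growth ~3 weeks, then visual % efficacy vs untreated controls (100% = plants dead, 0% = like control).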

[3] = test system: ABUTH: Abutilon theophrasti; experiment: Pre-emergence herbicide efficacy at 1280 g/ha, ABUTH; conditions: visual scoring after about 3 weeks vs untreated controls
Outline: as §2

[4] = test system: MATIN: Matricaria inodora; experiment: Pre-emergence herbicide efficacy at 1280 g/ha, MATIN; conditions: visual scoring after about 3 weeks vs untreated controls
From the text: (§3) Seeds of mono- and dicotyledonous weed plants were placed in plastic pots in sandy loam soil (doubly sown with one species each of mono- or dicotyledonous weed plants per pot) and covered with soil. The compounds of the invention, formulated in the form of wettable powders (WP) or as emulsion concentrates (EC), were then applied to the surface of the covering soil as aqueous suspension or emulsion with addition of 0.5% additive at a water application rate of 600 litres per hectare (converted). After the treatment, the pots were placed in a greenhouse and kept under good growth conditions for the test plants. After about 3 weeks, the efficacy of the preparations was scored visually in comparison with untreated controls as percentages. For example, 100% activity=the plants have died, 0% activity=like control plants. Tables C1 to C12 below show the effects of selected compounds of the general formula (I) according to Table 1 on various harmful plants and at an application rate corresponding to 1280 g/ha, which were obtained by the trial procedure specified above.

[5] = test system: ECHCG: Echinochloa crus-galli; experiment: Post-emergence herbicidal efficacy at 1280 g/ha, ECHCG; conditions: rated visually after about 3 weeks vs untreated controls, 100% = plants have died, 0% = like control plants
Experimental: (§4) Seeds of mono- and dicotyledonous weed plants were placed in plastic pots in sandy loam soil (doubly sown with in each case one species of mono- or dicotyledonous weed plants per pot), covered with soil and cultivated in a greenhouse under controlled growth conditions. 2 to 3 weeks after sowing, the test plants were treated at the one-leaf stage. The compounds of the invention, formulated in the form of wettable powders (WP) or as emulsion concentrates (EC), were applied to the green parts of the plants as aqueous suspension or emulsion with addition of 0.5% additive at a water application rate equivalent to 600 litres per hectare. After the test plants had been kept in the greenhouse under optimum growth conditions for about 3 weeks, the activity of the preparations was rated visually in comparison to untreated controls. For example, 100% activity=the plants have died, 0% activity=like control plants. Tables A1 to A12 below show the effects of selected compounds of the general formula (I) according to Table 1 on various harmful plants and at an application rate corresponding to 1280 g/ha, which were obtained by the trial procedure specified above.

[6] = test system: AMARE: Amaranthus retroflexus; experiment: Pre-emergence herbicide efficacy at 1280 g/ha, AMARE; conditions: visual scoring after about 3 weeks vs untreated controls
Outline: as §2

[7] = test system: STEME: Stellaria media; experiment: Pre-emergence herbicide efficacy at 1280 g/ha, STEME; conditions: visual scoring vs untreated controls
Outline: as §2

[8] = test system: POAAN: Poa annua; experiment: Pre-emergence herbicide efficacy at 1280 g/ha, POAAN; conditions: visual scoring after about 3 weeks vs untreated controls
Outline: as §2

[9] = test system: SETVI: Setaria viridis; experiment: Pre-emergence herbicide efficacy at 1280 g/ha, SETVI; conditions: visual scoring vs untreated controls
Outline: as §2

[10] = test system: AMARE: Amaranthus retroflexus; experiment: Post-emergence herbicidal efficacy at 1280 g/ha, AMARE; conditions: rated visually after about 3 weeks vs untreated controls, 100% = plants have died, 0% = like control plants
Outline: as §1

[11] = test system: POAAN: Poa annua; experiment: Post-emergence herbicidal efficacy at 1280 g/ha, POAAN; conditions: visual rating about 3 weeks after treatment vs untreated controls
Outline: as §1

[12] = test system: ECHCG: Echinochloa crus-galli; experiment: Pre-emergence herbicide efficacy at 1280 g/ha, ECHCG; conditions: visual scoring after about 3 weeks vs untreated controls
Outline: as §2

[13] = test system: VERPE: Veronica persica; experiment: Pre-emergence herbicide efficacy at 1280 g/ha, VERPE; conditions: visual scoring vs untreated controls
From the text: as §3

[14] = test system: DIGSA: Digitaria sanguinalis; experiment: Pre-emergence herbicide efficacy at 1280 g/ha, DIGSA; conditions: visual scoring after about 3 weeks vs untreated controls
Outline: as §2

[15] = test system: STEME: Stellaria media; experiment: Post-emergence herbicidal efficacy at 1280 g/ha, STEME; conditions: visual rating about 3 weeks after treatment vs untreated controls
Outline: as §1

[16] = test system: ABUTH: Abutilon theophrasti; experiment: Post-emergence herbicidal efficacy at 1280 g/ha, ABUTH; conditions: rated visually after about 3 weeks vs untreated controls, 100% = plants have died, 0% = like control plants
Outline: as §1

[17] = test system: KCHSC: Kochia scoparia; experiment: Post-emergence herbicidal efficacy at 1280 g/ha, KCHSC; conditions: visual rating about 3 weeks after treatment vs untreated controls
Outline: as §1

[18] = test system: SETVI: Setaria viridis; experiment: Post-emergence herbicidal efficacy at 1280 g/ha, SETVI; conditions: visual rating about 3 weeks after treatment vs untreated controls
Outline: as §1

[19] = test system: DIGSA: Digitaria sanguinalis; experiment: Post-emergence herbicidal efficacy at 1280 g/ha, DIGSA; conditions: rated visually after about 3 weeks vs untreated controls, 100% = plants have died, 0% = like control plants
Experimental: as §4

FC(F)(F)c1cnn(-c2ccccc2Cc2ncc(Cl)cn2)c1 [Example 1-42]
Post-emergence efficacy against VERPE [1]: 90% | Pre-emergence efficacy against KCHSC [2]: 100% | Pre-emergence efficacy against ABUTH [3]: 100% | Pre-emergence efficacy against MATIN [4]: 90% | Post-emergence efficacy at 1280 g/ha against ECHCG in % [5]: 90% | Pre-emergence efficacy against AMARE [6]: 100% | Pre-emergence efficacy against STEME in % [7]: 100% | Pre-emergence efficacy against POAAN [8]: 90% | Pre-emergence efficacy against SETVI in % [9]: 100% | Post-emergence efficacy at 1280 g/ha against AMARE in % [10]: 100% | Post-emergence efficacy against POAAN [11]: 90% | Pre-emergence efficacy against ECHCG [12]: 90% | Pre-emergence efficacy against VERPE in % [13]: 90% | Pre-emergence efficacy against DIGSA [14]: 100% | Post-emergence efficacy against STEME [15]: 90% | Post-emergence efficacy at 1280 g/ha against ABUTH in % [16]: 90%

Clc1cnc(Oc2ccccc2Cc2ncccn2)nc1 [Example 1-76]
Post-emergence efficacy against VERPE [1]: 90% | Pre-emergence efficacy against ABUTH [3]: 90% | Pre-emergence efficacy against MATIN [4]: 90% | Pre-emergence efficacy against AMARE [6]: 100% | Pre-emergence efficacy against STEME in % [7]: 90% | Post-emergence efficacy at 1280 g/ha against AMARE in % [10]: 90% | Pre-emergence efficacy against VERPE in % [13]: 90%

Fc1cnc(Cc2ccccc2Oc2ncc(F)cn2)nc1 [Example 1-89]
Post-emergence efficacy against VERPE [1]: 100% | Post-emergence efficacy against KCHSC [17]: 100% | Pre-emergence efficacy against KCHSC [2]: 100% | Pre-emergence efficacy against ABUTH [3]: 100% | Pre-emergence efficacy against MATIN [4]: 100% | Pre-emergence efficacy against AMARE [6]: 100% | Pre-emergence efficacy against STEME in % [7]: 90% | Pre-emergence efficacy against POAAN [8]: 100% | Pre-emergence efficacy against SETVI in % [9]: 90% | Post-emergence efficacy at 1280 g/ha against AMARE in % [10]: 100% | Pre-emergence efficacy against VERPE in % [13]: 100% | Pre-emergence efficacy against DIGSA [14]: 100% | Post-emergence efficacy at 1280 g/ha against ABUTH in % [16]: 90%

Fc1ccc(Cc2ccccc2Oc2ncc(F)cn2)nc1 [Example 1-93]
Post-emergence efficacy against VERPE [1]: 100% | Post-emergence efficacy against KCHSC [17]: 100% | Pre-emergence efficacy against KCHSC [2]: 100% | Pre-emergence efficacy against ABUTH [3]: 100% | Pre-emergence efficacy against MATIN [4]: 100% | Pre-emergence efficacy against AMARE [6]: 100% | Pre-emergence efficacy against STEME in % [7]: 100% | Pre-emergence efficacy against POAAN [8]: 100% | Pre-emergence efficacy against SETVI in % [9]: 100% | Post-emergence efficacy at 1280 g/ha against AMARE in % [10]: 100% | Post-emergence efficacy against POAAN [11]: 100% | Pre-emergence efficacy against ECHCG [12]: 100% | Pre-emergence efficacy against VERPE in % [13]: 100% | Pre-emergence efficacy against DIGSA [14]: 100% | Post-emergence efficacy at 1280 g/ha against ABUTH in % [16]: 90%

Fc1cnc(Oc2ccccc2Cc2ccc(Cl)cn2)nc1 [Example 1-100]
Post-emergence efficacy against VERPE [1]: 100% | Post-emergence efficacy against KCHSC [17]: 100% | Pre-emergence efficacy against KCHSC [2]: 100% | Pre-emergence efficacy against ABUTH [3]: 100% | Pre-emergence efficacy against MATIN [4]: 100% | Pre-emergence efficacy against AMARE [6]: 100% | Pre-emergence efficacy against STEME in % [7]: 100% | Pre-emergence efficacy against POAAN [8]: 100% | Pre-emergence efficacy against SETVI in % [9]: 100% | Post-emergence efficacy at 1280 g/ha against AMARE in % [10]: 100% | Post-emergence efficacy against POAAN [11]: 100% | Pre-emergence efficacy against ECHCG [12]: 100% | Post-emergence efficacy against SETVI [18]: 90% | Pre-emergence efficacy against VERPE in % [13]: 100% | Pre-emergence efficacy against DIGSA [14]: 100% | Post-emergence efficacy against STEME [15]: 90% | Post-emergence efficacy at 1280 g/ha against ABUTH in % [16]: 90%

FC(F)(F)CCSc1ccccc1Cc1ncc(Cl)cn1 [Example 1-112]
Post-emergence efficacy against VERPE [1]: 100% | Post-emergence efficacy against KCHSC [17]: 100% | Pre-emergence efficacy against KCHSC [2]: 100% | Pre-emergence efficacy against ABUTH [3]: 90% | Post-emergence efficacy at 1280 g/ha against ECHCG in % [5]: 90% | Pre-emergence efficacy against AMARE [6]: 100% | Pre-emergence efficacy against STEME in % [7]: 90% | Post-emergence efficacy at 1280 g/ha against DIGSA in % [19]: 90% | Pre-emergence efficacy against POAAN [8]: 90% | Pre-emergence efficacy against SETVI in % [9]: 90% | Post-emergence efficacy at 1280 g/ha against AMARE in % [10]: 100% | Post-emergence efficacy against POAAN [11]: 100% | Pre-emergence efficacy against ECHCG [12]: 100% | Post-emergence efficacy against SETVI [18]: 90% | Pre-emergence efficacy against VERPE in % [13]: 100% | Pre-emergence efficacy against DIGSA [14]: 100% | Post-emergence efficacy against STEME [15]: 100% | Post-emergence efficacy at 1280 g/ha against ABUTH in % [16]: 100%

Fc1cnc(Cc2ccccc2-n2cc(C(F)(F)F)cn2)nc1 [Example 1-129]
Post-emergence efficacy against VERPE [1]: 90% | Post-emergence efficacy against KCHSC [17]: 100% | Pre-emergence efficacy against KCHSC [2]: 90% | Pre-emergence efficacy against ABUTH [3]: 100% | Pre-emergence efficacy against MATIN [4]: 100% | Pre-emergence efficacy against AMARE [6]: 100% | Pre-emergence efficacy against STEME in % [7]: 100% | Pre-emergence efficacy against POAAN [8]: 90% | Pre-emergence efficacy against SETVI in % [9]: 90% | Post-emergence efficacy at 1280 g/ha against AMARE in % [10]: 100% | Post-emergence efficacy against POAAN [11]: 100% | Pre-emergence efficacy against ECHCG [12]: 100% | Pre-emergence efficacy against VERPE in % [13]: 90% | Pre-emergence efficacy against DIGSA [14]: 90% | Post-emergence efficacy against STEME [15]: 100% | Post-emergence efficacy at 1280 g/ha against ABUTH in % [16]: 100%
